This is an account of results in patent publication US9149572B2, “Chondroitin sulfate having decreased molecular weight and use thereof” (Seikagaku Corporation, priority 2007, dated 2015).

One test has as its system AGE production. The experiment in a line: Inhibition of AGE production (glucose and bovine serum albumin, fluorescence), Example 5. In kind it is biochemical. Particulars: positive control substance 1 mM; 37° C., 4 weeks. The method, then:
An experiment was performed according to the method of T. Kiho et al. (Biosci Biotechnol Biochem, 68: 200, 2004). To be more specific, a test substance was dissolved in 0.1 M phosphate buffer (pH 7.4) containing 500 mM glucose and 10 mg/mL bovine serum albumin at a concentration of 0.1% (w/v), and the resulting solution was incubated at 37° C. for 4 weeks. After 4 weeks, a value of fluorescence emitted by AGE was measured at an excitation light wavelength of 355 nm and a measurement wavelength of 460 nm, and the amount of produced AGE was determined, and then, an inhibition rate of AGE production was calculated according to the following calculation equation. Inhibition rate of AGE production(%)=[1−(Fluorescence value when test substance was added)/(Fluorescence value when test substance was not added)]×100 [Equation 1] (Experimental Results)
Incidentally, as the test substance, the following substances were used. Further, as a positive control substance, 1 mM aminoguanidine (a known AGE production inhibitor) was used.

Test [1] deals with HL-60 cells differentiated into neutrophil-like cells. Nature of the test: ROS scavenging in phorbol ester-stimulated HL-60 cells (L-012 luminescence), Example 6. Format: cell-based. As for the experimental part:
An experiment was performed according to the method of Olga T. et al. (Toxicological Science, 76: 376, 2003). To be more specific, HL-60 cells differentiated into neutrophil-like cells were suspended in a culture medium at 2×10^6 cells/mL, and the resulting cell suspension was added to a 96-well plate at 50 μL/well. Then, a test substance was added to the well at 50 μL/well (final concentration: 0.03%, 0.1%, and 0.3% (w/v)). Further, the culture medium was added to the well as a negative control at 50 μL/well. […] As a background, the plate to which the culture medium was added in place of the phorbol ester was incubated in the same manner. After completion of the incubation, a luminescence intensity (CPS) was measured using a multilabel counter, ARVOSX 1420 (manufactured by PerkinElmer) and an ROS scavenging rate was calculated according to the following calculation equation. […] Incidentally, as the test substance, the following substances were used. Further, as a positive control substance, 20 nM staurosporine (a known phorbol ester signal inhibitor) was used.

Test [2] concerns peritoneum (ultrafiltration capacity). Nature of the test: Peritoneal equilibration test after repeated peritoneal dialysis fluid administration (water removal rate), Example 3. Particulars: 0.1% (w/v) in Midpeliq 250, into the peritoneal cavity once daily 15 mL/body for 7 days; vs control group; FIG. 1; CSC 10 kDa by method of Example 2. Format: in vivo, Wistar male rat. As for the experimental part:
To a Wistar male rat at 8 weeks of age, Midpeliq 250 (trade name, a peritoneal dialysis fluid containing glucose at a concentration of 2.5% (w/v) manufactured by Terumo Corporation) in which a test substance was dissolved at a concentration of 0.1% (w/v) was repetitively administered into the peritoneal cavity once daily at 15 mL/body for 7 days under ether anesthesia. To a control group (Control), Midpeliq 250 was administered in the same manner. On the next day after the final administration, a peritoneal equilibration test was performed, and the peritoneal function was evaluated. To be more specific, Midpeliq 250 was injected into the peritoneal cavity at 60 mL/kg, and 4 hours thereafter, the fluid remaining in the peritoneal cavity was recovered. The amount of the recovered fluid was measured, and the ultrafiltration capacity (water removal rate) of the peritoneum was evaluated.

Setting [3] is: Table 4, test substance 0.1% (w/v), CSC 10 kDa by method of Example 1.

For `N=C(N)NN` [Aminoguanidine, aminoguanidine], the “Inhibition rate of AGE production” value in the test with AGE production is given as 52.7%.
In test [1] (setting [3]), “Chondroitin sulfate E, sodium salt (squid cartilage) [CSE 75 kDa]” gave an ROS scavenging rate of 21.9%.
Still for that read-out and setting: for Chondroitin, sodium salt [Ch 5 kDa] the value was 13.6%.
On to `CN[C@@H]1C[C@H]2O[C@@](C)([C@@H]1OC)n1c3ccccc3c3c4c(c5c6ccccc6n2c5c31)C(=O)NC4` [Staurosporine, staurosporine, reference compound], for which the ROS scavenging rate turned out to be 97.4% in test [1] (Table 4, positive control substance 20 nM) and 98.1% in test [1] (Table 5, positive control substance 20 nM).
In test [1] (setting [3]), “Chondroitin sulfate A, sodium salt (whale cartilage), SG [CSA 30 kDa]” showed an ROS scavenging rate of 33.4%.
Regarding “Chondroitin sulfate C, sodium salt (shark cartilage), SG [CSC 30 kDa]”, the ROS scavenging rate in test [1] (setting [3]) stood at 5.0%. Also, the “effect of protecting the peritoneum (action of inhibiting a decrease in water removal rate)” value in test [2] is “statistically significant effect was not observed”.
